Laboratory results: US20140186329A1, “POLYPHENOL ANALOGS TO TREAT ISCHEMIA” (priority 2011, published 2014)

Tested on: primary cortical neurons
Experiment: Trophic factor withdrawal
Type: cell-based, rat
Settings: serum-containing medium, 10-10,000 nM, 2 days
Description: FIG. 5 illustrates pharmacological effects of Baicalein on cultured cells. (A) Trophic factor withdrawal. Primary cortical neurons are prepared from 18-day-old rat embryos, and cultured at low cell density 1×10^6/35 mm dish, in serum containing medium with Baicalein (10-10,000 nM), and viability assayed 2 days later using a live-dead assay. (B) Excitotoxicity assay was done with E14 mouse primary cortical neuron cultures. After 11 days of culture, cells were exposed to 10 μM glutamate for 10 min, followed by the addition of varying concentrations of Baicalein (0.2-5 μM). Cell viability was determined 24 hr later with a standard MTT assay. (C) PC12 cells were glucose-deprived then were incubates in the absence or presence of Baicalein. Cell viability was determined 24 hr later using the MTT assay. (D) RCG-5 nerve cells were treated with 30 μM iodoacetic acid for 2 hr in the presence or absence of 5-25 μM Baicalein. In some experiments, Baicalein was added 2 hr after the ischemic event. Cell survival (%) was measured after 24 hr by the MTT assay. Baicalein added before (□) or 2 hr after ([…]) ischemia. […] These include trophic factor withdrawal (TFW), excitotoxicity, glucose starvation, and most importantly, in a chemical ischemia model. […] (FIG. 5A). Using a published excitotoxicity assay, Baicalein rescues about 35% of the cells (FIG. 5B).

## O=c1cc(-c2ccccc2)oc2cc(O)c(O)c(O)c12 [Baicalein, 5,6,7-trihydroxyflavone, reference compound]
  survival of low-density cultured cortical neurons: dramatically promotes the survival
